Numbers after ± are expanded uncertainties.
Conditions: 101 kPa, Liquid mixture 1

c1ccccc1 [benzene] + O
interfacial tension (293.2 K, Drop weight): 34.82 ± 0.33 mN/m | interfacial tension (298.2 K, Drop weight): 34.06 ± 0.33 mN/m | interfacial tension (303.2 K, Drop weight): 33.64 ± 0.32 mN/m | interfacial tension (308.2 K, Drop weight): 32.87 ± 0.32 mN/m | interfacial tension (313.2 K, Drop weight): 32.1 ± 0.31 mN/m | interfacial tension (318.2 K, Drop weight): 31.62 ± 0.31 mN/m | interfacial tension (323.2 K, Drop weight): 30.95 ± 0.3 mN/m | interfacial tension (328.2 K, Drop weight): 30.92 ± 0.3 mN/m | interfacial tension (333.2 K, Drop weight): 30.52 ± 0.3 mN/m

CCCCCCCO [heptan-1-ol] + O
interfacial tension (293.2 K, Drop weight): 6.37 ± 0.12 mN/m | interfacial tension (298.2 K, Drop weight): 6.44 ± 0.12 mN/m | interfacial tension (303.2 K, Drop weight): 6.52 ± 0.12 mN/m | interfacial tension (313.2 K, Drop weight): 6.6 ± 0.12 mN/m | interfacial tension (323.2 K, Drop weight): 6.62 ± 0.12 mN/m | interfacial tension (333.2 K, Drop weight): 6.58 ± 0.12 mN/m | interfacial tension (343.2 K, Drop weight): 6.46 ± 0.12 mN/m

CCCCCCC [heptane] + O
interfacial tension (293.2 K, Drop weight): 51.3 ± 0.46 mN/m | interfacial tension (298.2 K, Drop weight): 50.87 ± 0.46 mN/m | interfacial tension (303.2 K, Drop weight): 50.35 ± 0.45 mN/m | interfacial tension (308.2 K, Drop weight): 49.84 ± 0.45 mN/m | interfacial tension (313.2 K, Drop weight): 49.6 ± 0.45 mN/m | interfacial tension (318.2 K, Drop weight): 49 ± 0.44 mN/m | interfacial tension (323.2 K, Drop weight): 48.54 ± 0.44 mN/m | interfacial tension (328.2 K, Drop weight): 48.1 ± 0.44 mN/m | interfacial tension (333.2 K, Drop weight): 47.73 ± 0.43 mN/m | interfacial tension (338.2 K, Drop weight): 47.28 ± 0.43 mN/m | interfacial tension (343.2 K, Drop weight): 46.7 ± 0.42 mN/m

CCCCCCO [hexan-1-ol] + O
interfacial tension (293.2 K, Drop weight): 7.37 ± 0.12 mN/m | interfacial tension (298.2 K, Drop weight): 7.49 ± 0.13 mN/m | interfacial tension (303.2 K, Drop weight): 7.6 ± 0.13 mN/m | interfacial tension (313.2 K, Drop weight): 7.7 ± 0.13 mN/m | interfacial tension (323.2 K, Drop weight): 7.86 ± 0.13 mN/m | interfacial tension (333.2 K, Drop weight): 7.9 ± 0.13 mN/m | interfacial tension (343.2 K, Drop weight): 7.87 ± 0.13 mN/m

CCCCCC [hexane] + O
interfacial tension (293.2 K, Drop weight): 50.81 ± 0.46 mN/m | interfacial tension (298.2 K, Drop weight): 50.49 ± 0.45 mN/m | interfacial tension (303.2 K, Drop weight): 50.11 ± 0.45 mN/m | interfacial tension (308.2 K, Drop weight): 49.68 ± 0.45 mN/m | interfacial tension (313.2 K, Drop weight): 49.28 ± 0.44 mN/m | interfacial tension (318.2 K, Drop weight): 48.84 ± 0.44 mN/m | interfacial tension (323.2 K, Drop weight): 48.46 ± 0.44 mN/m | interfacial tension (328.2 K, Drop weight): 47.94 ± 0.43 mN/m | interfacial tension (333.2 K, Drop weight): 46.92 ± 0.43 mN/m

CCCCCCCCCO [nonan-1-ol] + O
interfacial tension (293.2 K): 8.18 ± 0.25 mN/m | interfacial tension (298.2 K): 8.48 ± 0.26 mN/m | interfacial tension (303.2 K): 9 ± 0.26 mN/m | interfacial tension (313.2 K): 9.15 ± 0.27 mN/m | interfacial tension (323.2 K): 9.86 ± 0.28 mN/m | interfacial tension (333.2 K): 9.67 ± 0.27 mN/m | interfacial tension (343.2 K): 9.72 ± 0.27 mN/m

CCCCCCCCC [nonane] + O
interfacial tension (293.2 K, Drop weight): 51.95 ± 0.46 mN/m | interfacial tension (298.2 K, Drop weight): 51.54 ± 0.46 mN/m | interfacial tension (303.2 K, Drop weight): 51.11 ± 0.46 mN/m | interfacial tension (308.2 K, Drop weight): 50.68 ± 0.46 mN/m | interfacial tension (313.2 K, Drop weight): 50.23 ± 0.45 mN/m | interfacial tension (318.2 K, Drop weight): 49.63 ± 0.45 mN/m | interfacial tension (323.2 K, Drop weight): 49.09 ± 0.44 mN/m | interfacial tension (328.2 K, Drop weight): 48.46 ± 0.44 mN/m | interfacial tension (333.2 K, Drop weight): 48.03 ± 0.43 mN/m | interfacial tension (338.2 K, Drop weight): 47.61 ± 0.43 mN/m | interfacial tension (343.2 K, Drop weight): 46.96 ± 0.43 mN/m

CCCCCCCCO [octan-1-ol] + O
interfacial tension (293.2 K, Drop weight): 8.02 ± 0.13 mN/m | interfacial tension (298.2 K, Drop weight): 8.19 ± 0.13 mN/m | interfacial tension (303.2 K, Drop weight): 8.42 ± 0.13 mN/m | interfacial tension (313.2 K, Drop weight): 8.62 ± 0.13 mN/m | interfacial tension (323.2 K, Drop weight): 8.83 ± 0.13 mN/m | interfacial tension (333.2 K, Drop weight): 9.02 ± 0.13 mN/m | interfacial tension (343.2 K, Drop weight): 9.02 ± 0.13 mN/m

CCCCCCCC [octane] + O
interfacial tension (293.2 K, Drop weight): 51.67 ± 0.46 mN/m | interfacial tension (298.2 K, Drop weight): 51.2 ± 0.46 mN/m | interfacial tension (303.2 K, Drop weight): 50.78 ± 0.46 mN/m | interfacial tension (308.2 K, Drop weight): 50.28 ± 0.45 mN/m | interfacial tension (313.2 K, Drop weight): 49.9 ± 0.45 mN/m | interfacial tension (318.2 K, Drop weight): 49.31 ± 0.44 mN/m | interfacial tension (323.2 K, Drop weight): 48.86 ± 0.44 mN/m | interfacial tension (328.2 K, Drop weight): 48.34 ± 0.44 mN/m | interfacial tension (333.2 K, Drop weight): 47.81 ± 0.43 mN/m | interfacial tension (338.2 K, Drop weight): 47.33 ± 0.43 mN/m | interfacial tension (343.2 K, Drop weight): 46.82 ± 0.43 mN/m
